Experimental data: patent US11261177B2, “Benzoxazinone derivatives useful as herbicides” (REDAG CROP PROTECTION LTD, priority 2017, dated 2022)

Columns and labels:
Type in all cases: in vivo
Lolium perenne [1] = assay: Pre-emergence herbicidal assay, 96 cell trays, glasshouse; conditions: 168 h, second trial (Table 2), Lollium, assessed 7 days after treatment, read-out: % control of plant growth; for pest or weed control at 200 g/ha: 0.2 kg/ha; for pest or weed control at 1000 g/ha: 1 kg/ha; for pest or weed control at 5000 g/ha: 5 kg/ha
How it was run: (§1)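 Read-out: % control of plant growth per cell, assessed 7 days post-treatment in an uncontrolled glasshouse. Doses 0.2, 1, 5 kg/ha; pre-emergence treatment 1 day after sowing, post-emergence spray at two weeks.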

[2] = tested on: Stellaria media—Chickweed; assay: as above; conditions: 168 h, second trial (Table 2), assessed 7 days after treatment, read-out: % control of plant growth; for pest or weed control at 200 g/ha: 0.2 kg/ha; for pest or weed control at 1000 g/ha: 1 kg/ha; for pest or weed control at 5000 g/ha: 5 kg/ha
How it was run: as §1

Lolium perenne [3] = assay: Post-emergence herbicidal assay, 96 cell trays, glasshouse; conditions: 168 h, second trial (Table 2), Lollium, assessed 7 days after treatment, read-out: % control of plant growth; for pest or weed control at 200 g/ha: 0.2 kg/ha; for pest or weed control at 1000 g/ha: 1 kg/ha; for pest or weed control at 5000 g/ha: 5 kg/ha
How it was run: as §1

[4] = tested on: Stellaria media—Chickweed; assay: as above; conditions: 168 h, second trial (Table 2), assessed 7 days after treatment, read-out: % control of plant growth; for pest or weed control at 200 g/ha: 0.2 kg/ha; for pest or weed control at 1000 g/ha: 1 kg/ha; for pest or weed control at 5000 g/ha: 5 kg/ha
How it was run: as §1

[5] = tested on: 2 weed species (Stellaria media—Chickweed and Lolium perenne); assay: Herbicidal activity screen, summary in words over both weed species; conditions: pre- and post-emergence, 0.2, 1 and 5 kg/ha
Method: The compounds were screened at three concentrations (0.2, 1 and 5 kg/ha) against 2 weed species (Stellaria media—Chickweed and Lolium perenne). The seeds were sown in the cells of 96 cell trays (4-6 seeds per cell). For the pre-emergence assay, 75 μL of a suspension of the test compound, at the above doses, was added on top of the soil 1 day after sowing. For the post-emergence assay, the seedlings were sprayed with 200 μL of a suspension of the test compound two weeks after sowing. The formulation used is 25% acetone and 75% water/0.01% Tween 20. Each treatment was replicated three times. The plants were kept in a glasshouse (uncontrolled conditions) and assessed 7 days after treatment. A small number of compounds were tested in a first trial. A larger number of compounds were tested in a second trial. The assessment was based on the % control of plant growth in each cell.

Row | Structure (SMILES) | pest or weed control at 200 g/ha (Lolium perenne [1]) | pest or weed control at 1000 g/ha (Lolium perenne [1]) | pest or weed control at 5000 g/ha (Lolium perenne [1]) | pest or weed control at 200 g/ha [2] | pest or weed control at 1000 g/ha [2] | pest or weed control at 5000 g/ha [2] | pest or weed control at 200 g/ha (Lolium perenne [3]) | pest or weed control at 1000 g/ha (Lolium perenne [3]) | pest or weed control at 5000 g/ha (Lolium perenne [3]) | pest or weed control at 200 g/ha [4] | pest or weed control at 1000 g/ha [4] | pest or weed control at 5000 g/ha [4] | herbicidal activity [5]
1 | C#CCN1C(=O)C2(CC2)Oc2cc(F)c(/N=c3\sc(=O)n4n3CCCC4)cc21 [Example 31, (Z)-7-Fluoro-6-((3-oxotetrahydro-1H,3H-[1,3,4]thiadiazolo[3,4-a]pyridazin-1-ylidene)amino)-4-(prop-2-yn-1-yl)spiro[benzo[b][1,4]oxazine-2,1′-cyclopropan]-3(4H)-one] | 80 to 100% | 80 to 100% | 80 to 100% | 80 to 100% | 80 to 100% | 80 to 100% | 80 to 100% | 80 to 100% | 80 to 100% | 80 to 100% | 80 to 100% | 80 to 100% | excellent herbicidal activity against all tested species
2 | C#CCN1C(=O)C2(CC2)Oc2cc(F)c(-n3c(=O)cc(C(F)(F)F)n(C)c3=O)cc21 [Example 34, 3-(7-Fluoro-3-oxo-4-(prop-2-yn-1-yl)-3,4-dihydrospiro[benzo[b][1,4]oxazine-2,1′-cyclopropan]-6-yl)-1-methyl-6-(trifluoromethyl)pyrimidine-2,4(1H,3H)-dione] | 20 to 80% | 80 to 100% | 80 to 100% | 80 to 100% | 80 to 100% | 80 to 100% | 20 to 80% | 80 to 100% | 80 to 100% | 80 to 100% | 80 to 100% | 80 to 100% | excellent herbicidal activity against all tested species
3 | C#CCN1C(=O)C2(CC2)Oc2cc(F)c(-n3c(=O)cc(C(F)(F)F)n(CCC)c3=O)cc21 [Example 43] | 20 to 80% | 80 to 100% | 80 to 100% | 20 to 80% | 80 to 100% | 80 to 100% | 20 to 80% | 20 to 80% | 80 to 100% | 80 to 100% | 80 to 100% | 80 to 100% | excellent herbicidal activity against all tested species
4 | C#CCN1C(=O)C2(CC2)Oc2cc(F)c(N3C(=O)C4CCCN4C3=O)cc21 (centres unmarked) [Example 44, 2-(7-Fluoro-3-oxo-4-(prop-2-yn-1-yl)-3,4-dihydrospiro[benzo[b][1,4]oxazine-2,1′-cyclopropan]-6-yl)tetrahydro-1H-pyrrolo[1,2-c]imidazole-1,3(2H)-dione] | < 20% | 20 to 80% | 80 to 100% | 80 to 100% | 80 to 100% | 80 to 100% | 80 to 100% | 80 to 100% | 80 to 100% | 80 to 100% | 80 to 100% | 80 to 100% | excellent herbicidal activity against all tested species
5 | C#CCN1C(=O)C2(CC2)Oc2cc(F)c(N3C(=O)C4CCCCN4C3=O)cc21 (centres unmarked) [Example 47] | 20 to 80% | 80 to 100% | 80 to 100% | 80 to 100% | 80 to 100% | 80 to 100% | 80 to 100% | 80 to 100% | 80 to 100% | 80 to 100% | 80 to 100% | 80 to 100% | excellent herbicidal activity against all tested species
